Results reported in patent US8507472B2 (priority 2010, dated 2013).
Like-named read-outs stand apart in the source and are kept apart here.

What was measured:
[1] = log P determination by HPLC retention times (alkan-2-one calibration)
DON/AcDON production = experiment: microbe, parasite or virus in culture; assay type: cell-based, Fusarium graminearum; details: 7 days at 28° C.; for inhibition at 50 µM: Fusarium graminearum, 168 h
Pyrenophora teres = Pyrenophora teres test (barley)/protective; assay type: in vivo
Outline: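 Protective test: young barley plants sprayed at the stated rate with compound in DMF/alkylaryl polyglycol ether diluted with water, inoculated with P. teres spores 1 day later, kept 48 h at 100% rel. humidity and 22° C., then greenhouse at 80% and 20° C. Efficacy scored 7-9 days post-inoculation (0% = control, 100% = no infection).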

Fusarium graminearum = experiment: microbe, parasite or virus in culture; assay type: cell-based; details: for inhibition at 50 µM: Fusarium graminearum, 72 h, read-out: % inhibition of the fungal growth of Fusarium graminearum at 50 μM
Sphaerotheca fuliginea = experiment: Sphaerotheca test (cucumber)/protective; assay type: in vivo
Description: (§1) Solvent: 49 parts by weight of N,N-dimethylformamide
(§2) Emulsifier: 1 part by weight of alkylaryl polyglycol ether
(§3) To produce a suitable preparation of active compounds, 1 part by weight of active compound is mixed with the stated amounts of solvent and emulsifier, and the concentrate is diluted with water to the desired concentration.
To test for protective activity, young cucumber plants are sprayed with the active compound preparation at the stated application rate. 1 day after the treatment, the plants are inoculated with a spore suspension of Sphaerotheca fuliginea. The plants are then placed in a greenhouse at 70% rel. atmospheric humidity and a temperature of 23° C.
(§4) Evaluation is carried out 7 days after the inoculation. 0% means an efficacy which corresponds to that of the control, whereas an efficacy of 100% means that no infection is observed.

Leptosphaeria nodorum = Leptosphaeria nodorum test (wheat)/protective; assay type: in vivo
Description: as §1, §2, §3
To test for protective activity, young wheat plants are sprayed with the active compound preparation at the stated application rate. 1 day after the treatment, the plants are inoculated with an aqueous spore suspension of Leptosphaeria nodorum and then remain at 100% rel. atmospheric humidity and 22° C. for 48 h. The plants are then placed in a greenhouse at 90% rel. atmospheric humidity and a temperature of 22° C.
Evaluation is carried out 7-9 days after the inoculation. 0% means an efficacy which corresponds to that of the control, whereas an efficacy of 100% means that no infection is observed.

Phytophthora infestans = assay type: in vivo
Alternaria solani = experiment: Alternaria test (tomato)/protective; assay type: in vivo
Description: as §1, §2
To produce a suitable preparation of active compound, 1 part by weight of active compound is mixed with the stated amounts of solvent and emulsifier, and the concentrate is diluted with water to the desired concentration.
To test for protective activity, young tomato plants are sprayed with the active compound preparation at the stated application rate. 1 day after the treatment, the plants are inoculated with a spore suspension of Alternaria solani and then remain at 100% rel. humidity and 22° C. for 24 h. The plants then remain at 96% rel. atmospheric humidity and a temperature of 20° C.
as §4

Venturia inaequalis = experiment: Venturia test (apple)/protective; assay type: in vivo; details: 100 ppm active compound, protective, evaluation 10 days after inoculation
Description: Solvents: 24.5 parts by weight of acetone • 24.5 parts by weight of dimethylacetamide Emulsifier: 1 part by weight of alkylaryl polyglycol ether
To produce a suitable preparation of active compound, 1 part by weight of active compound is mixed with the stated amounts of solvents and emulsifier, and the concentrate is diluted with water to the desired concentration.
To test for protective activity, young plants are sprayed with the active compound preparation at the stated application rate. After the spray coating has dried on, the plants are inoculated with an aqueous conidia suspension of the apple scab pathogen Venturia inaequalis and then remain in an incubation cabin at about 20° C. and 100% relative atmospheric humidity for 1 day.
The plants are then placed in a greenhouse at about 21° C. and a relative atmospheric humidity of about 90%.
Evaluation is carried out 10 days after the inoculation. 0% means an efficacy which corresponds to that of the control, whereas an efficacy of 100% means that no infection is observed.

[2] = log P(HCOOH), HCOOH, preparation examples in the text
[3] = log P, values marked [b] in Table 1
[4] = 500 ppm active compound, barley, protective, evaluation 7-9 days after inoculation
[5] = 500 ppm active compound, tomato, protective, evaluation 7 days after inoculation
[6] = 500 ppm active compound, wheat, protective, evaluation 7-9 days after inoculation

| SMILES | efficacy in % (Sphaerotheca fuliginea; in vivo) [%] | efficacy in % (Leptosphaeria nodorum; in vivo) [%] | % inhibition of DON/AcDON at 50 μM (DON/AcDON production) [%] | efficacy in % (Pyrenophora teres; in vivo) [%] | % inhibition of the fungal growth of Fusarium graminearum at 50 μM (Fusarium graminearum) [%] | efficacy in % (Phytophthora infestans; in vivo) [%] | efficacy in % (Alternaria solani; in vivo) [%] | further results |
| --- | --- | --- | --- | --- | --- | --- | --- | --- |
| Fc1cc(-c2c(-c3ccccc3)nn3c2CCC3)ccn1 [Example 61, 3-(2-Fluoropyridin-4-yl)-2-phenyl-5,6-dihydro-4H-pyrrolo[1,2-b]pyrazole] | – | – | – | – | – | – | – | chromatographic logP [1, 2]: 2.53; chromatographic logP [1, 3]: 2.53; inhibition at 50 µM (DON/AcDON production): 100%; efficacy in % (Pyrenophora teres; [4]): 70%; inhibition at 50 µM (Fusarium graminearum): 0% |
| COCC(=O)Nc1cc(-c2c(-c3ccsc3)nn3c2CCCC3)ccn1 [Example 60] | 90 | 78 | 100 | 90 | 100 | – | – | – |
| c1cc(-c2c(-c3ccsc3)nn3c2CCC3)ccn1 [Example 46] | – | – | 100 | 70 | 52 | 70 | 70 | – |
| Cc1ccc(-c2nn3c(c2-c2ccncc2)CCC3)cc1 [Example 41] | – | – | 98 | 95 | 100 | 70 | 70 | – |
| Fc1cccc(-c2nn3c(c2-c2ccncc2)CCC3)c1 [Example 44] | – | – | 100 | 90 | 61 | 70 | 80 | – |
| c1csc(-c2nn3c(c2-c2ccncc2)CCCC3)c1 [Example 62] | – | 78 | 100 | 95 | 35 | 80 | 94 | – |
| CC(C)C(=O)Nc1cc(-c2c(-c3ccc(F)cc3)nn3c2CCOC3(C)C)ccn1 [Example 83] | 98 | 75 | – | 94 | – | 70 | 89 | – |
| Nc1cc(-c2c(-c3ccccc3)nn3c2CCCC3)ccn1 [Example 14] | – | – | 93 | – | 24 | 70 | – | – |
| COC(=O)Nc1cc(-c2c(-c3ccsc3)nn3c2CCCC3)ccn1 [Example 67] | – | – | 100 | 95 | 60 | 70 | 80 | – |
| c1ccc(-c2nn3c(c2-c2ccncc2)CCC3)cc1 [Example 10] | 94 | 80 | 100 | 80 | 87 | 70 | 70 | – |
| O=C(Nc1cc(-c2c(-c3ccc(F)cc3)nn3c2COCC3)ccn1)C1CC1 [Example 93] | 98 | 80 | – | 100 | – | 90 | 95 | – |
| Fc1ccc(-c2nn3c(c2-c2ccnc(F)c2)CCC3)cc1 [Example 45] | – | – | 100 | 95 | 21 | 90 | 95 | – |
| Fc1cccc(-c2nn3c(c2-c2ccnc(F)c2)CCC3)c1 [Example 54] | – | – | 100 | – | 0 | – | 80 | – |
| CC(C)(C)OC(=O)Nc1cc(-c2c(-c3ccc(F)cc3)nn3c2CCCC3)ccn1 [Example 16] | – | – | 93 | – | 0 | – | – | – |
| CC(C)C(=O)Nc1cc(-c2c(-c3ccc(F)cc3)nn3c2COCC3)ccn1 [Example 92] | 98 | 90 | – | 95 | – | 80 | 90 | – |
| CC(C)Nc1cc(-c2c(-c3ccccc3)nn3c2CCC3)ccn1 [Example 70, 4-[2-(Phenyl)-5,6-dihydro-4H-pyrrolo[1,2-b]pyrazol-3-yl]-N-isopropylpyridine-2-amine] | – | – | – | – | – | – | – | efficacy in % (Phytophthora infestans; [5]): 95%; efficacy in % (Sphaerotheca fuliginea; 500 ppm active compound, cucumber, protective, evaluation 7 days after inoculation): 94%; chromatographic logP [1, 2]: 1.21; chromatographic logP [1, 3]: 2.69; efficacy in % (Leptosphaeria nodorum; [6]): 90%; efficacy in % (Alternaria solani; [5]): 90%; efficacy in % (Venturia inaequalis): 100%; efficacy in % (Pyrenophora teres; [4]): 80% |
| C[C@@H](O)C(=O)Nc1cc(-c2c(-c3ccsc3)nn3c2CCCC3)ccn1 [Example 66] | – | – | 98 | 95 | 50 | 80 | 70 | – |
| CC(=O)Nc1cc(-c2c(-c3ccc(F)cc3)nn3c2CCOC3(C)C)ccn1 [Example 90] | 95 | 89 | – | 95 | – | 78 | 95 | – |
| FC(F)(F)c1cccc(-c2nn3c(c2-c2ccncc2)CCC3)c1 [Example 42] | – | – | 98 | – | 100 | – | – | – |
| COCC(=O)Nc1cc(-c2c(-c3ccc(F)cc3)nn3c2CCOC3(C)C)ccn1 [Example 82] | 95 | 88 | – | 94 | – | 70 | 89 | – |
| Cc1cc(-c2c(-c3ccc(F)cc3)nn3c2CCCC3)ccn1 [Example 6] | – | 70 | 99 | 70 | 70 | – | 95 | log P ([1]; values marked [a] in Table 1): 1.22^[a];; log P ([1]; values marked [b] in Table 1): 2.67^[b] |
| Nc1cc(-c2c(-c3ccc(F)cc3)nn3c2CCCC3)ccn1 [Example 3, 4-[2-(4-Fluorophenyl)-4,5,6,7-tetrahydropyrazolo[1,5-a]pyridin-3-yl]pyridine-2-amine] | – | – | – | – | – | – | – | efficacy in % (Phytophthora infestans; [5]): 90%; chromatographic logP [1, 2]: 1.21; chromatographic logP ([1]; log P, values marked [a] in Table 1): 1.21; chromatographic logP [1, 3]: 2.05; efficacy in % (Leptosphaeria nodorum; [6]): 89%; inhibition at 50 µM (DON/AcDON production): 94%; efficacy in % (Alternaria solani; [5]): 95%; efficacy in % (Pyrenophora teres; [4]): 95%; inhibition at 50 µM (Fusarium graminearum): 30% |
| CCC(=O)Nc1cc(-c2c(-c3ccc(F)cc3)nn3c2CCCCC3)ccn1 [Example 96] | 95 | 90 | – | 100 | – | 70 | 90 | – |
| Clc1ccc(-c2nn3c(c2-c2ccncc2)CCC3)cc1 [Example 11] | 88 | 70 | 100 | 70 | 92 | 80 | – | – |
| CC(C)Nc1cc(-c2c(-c3cccc(F)c3)nn3c2CCC3)ccn1 [Example 56] | – | – | 92 | – | 27 | 80 | – | – |
| Fc1cc(-c2c(-c3ccc(Cl)cc3)nn3c2CCC3)ccn1 [Example 13] | – | – | 96 | 80 | 17 | – | – | – |
